Data as given in US6677460B1, “Aromatic carboxylic acid bicyclic sulfur compounds” (Idemitsu Kosan Company, Limited, priority 1993, dated 2004).

Experiments:
Assay type in all cases: in vivo
barnyard grass [1] = test: Upland soil treatment test (8); settings: 20th day after spraying
Experimental: (§1) 90 Parts by weight of the above carrier and 10 parts by weight of each of Compounds obtained in the above Preparation Examples were uniformly pulverized and mixed to obtain herbicides. Further, for Herbicide Comparative Examples, comparative herbicides were prepared by uniformly pulverizing and mixing 90 parts by weight of the above carrier and 10 parts by weight of each of the following Compounds x, y, A, B and C.
(§2) (8) Biological Test (Upland Soil Treatment Test, Herbicide Examples 48-52 and Herbicide Comparative Examples 13 and 14)
(§3) Seeds of weeds such as large crabgrass, barnyard brass, green foxtail, cocklebur, velvetleaf and slender amarnth and seeds of corn, wheat and barley were sown in 1/5,000-are Wagner pots filled with upland soil, and covert with upland soil. Then, a predetermined amount of the herbicide prepared in the above (1) was suspended in water and uniformly sprayed onto the soil surface. Thereafter, the plant were grown in the greenhouse, and on the 20th day after the spraying treatment, the herbicide was evaluated for herbicidal efficacy.
(§4) The herbicidal efficacy and the phytotoxicity to crops are shown on the basis of the ratings described in (2) Foliar treatment test.

cocklebur [2] = test: Upland soil treatment test (8); settings: 20th day after spraying
Experimental: as §1, §2, §3, §4

green foxtail [3] = test: Upland soil treatment test (8); settings: 20th day after spraying
Experimental: as §1, §2, §3, §4

velvetleaf [4] = test: Upland soil treatment test (8); settings: 20th day after spraying
Experimental: as §1, §2, §3, §4

large crabgrass [5] = test: Upland soil treatment test (8); settings: 20th day after spraying
Experimental: as §1, §2, §3, §4

slender amaranth [6] = test: Upland soil treatment test (8); settings: 20th day after spraying
Experimental: as §1, §2, §3, §4

cocklebur [7] = test: Foliar treatment test (7); settings: 20th day after spraying
Experimental: as §1
(§5) (7) Biological Test (Foliar Treatment Test, Herbicide Examples 43-47 and Comparative Examples 11 and 12)
as §3, with “barnyardgrass,” for “barnyard brass,”, “amaranth” for “amarnth”, “covered” for “covert”, “The seeds were grown in a greenhouse, and at the stage of 1 to 2 leaves of these plants,” for “Then,”, “leaf and stalk portions at a rate of 200 liter/10 ares.” for “the soil surface.”, “plants” for “plant”
(§6) The herbicidal efficacy and phytotoxcity to crops were shown on the basis of the following ratings.
(§7) The ratio of remaining plant weight to non-treated was determined on the basis of the ratio of remaining plant weight to non-treated=(remaining plant weight in treated plot/remaining plant weight in non-treated plot)×100. This is also applicable to biological tests hereinafter.

barnyardgrass = test: Foliar treatment test (7); settings: 20th day after spraying
Experimental: as §1, §5
as §3, with “barnyardgrass,” for “barnyard brass,”, “amaranth” for “amarnth”, “covered” for “covert”, “The seeds were grown in a greenhouse, and at the stage of 1 to 2 leaves of these plants,” for “Then,”, “leaf and stalk portions at a rate of 200 liter/10 ares.” for “the soil surface.”, “plants” for “plant”
as §6, §7

green foxtail [8] = test: Foliar treatment test (7); settings: 20th day after spraying
Experimental: as §1, §5
as §3, with “barnyardgrass,” for “barnyard brass,”, “amaranth” for “amarnth”, “covered” for “covert”, “The seeds were grown in a greenhouse, and at the stage of 1 to 2 leaves of these plants,” for “Then,”, “leaf and stalk portions at a rate of 200 liter/10 ares.” for “the soil surface.”, “plants” for “plant”
as §6, §7

velvetleaf [9] = test: Foliar treatment test (7); settings: 20th day after spraying
Experimental: as §1, §5
as §3, with “barnyardgrass,” for “barnyard brass,”, “amaranth” for “amarnth”, “covered” for “covert”, “The seeds were grown in a greenhouse, and at the stage of 1 to 2 leaves of these plants,” for “Then,”, “leaf and stalk portions at a rate of 200 liter/10 ares.” for “the soil surface.”, “plants” for “plant”
as §6, §7

large crabgrass [10] = test: Foliar treatment test (7); settings: 20th day after spraying
Experimental: as §1, §5
as §3, with “barnyardgrass,” for “barnyard brass,”, “amaranth” for “amarnth”, “covered” for “covert”, “The seeds were grown in a greenhouse, and at the stage of 1 to 2 leaves of these plants,” for “Then,”, “leaf and stalk portions at a rate of 200 liter/10 ares.” for “the soil surface.”, “plants” for “plant”
as §6, §7

slender amaranth [11] = test: Foliar treatment test (7); settings: 20th day after spraying
Experimental: as §1, §5
as §3, with “barnyardgrass,” for “barnyard brass,”, “amaranth” for “amarnth”, “covered” for “covert”, “The seeds were grown in a greenhouse, and at the stage of 1 to 2 leaves of these plants,” for “Then,”, “leaf and stalk portions at a rate of 200 liter/10 ares.” for “the soil surface.”, “plants” for “plant”
as §6, §7

barnyard grass [12] = test: Upland soil treatment test (3); settings: 20th day after treatment
Experimental: as §1
(§8) (3) Biological Test (Upland Soil Treatment Test, Herbicide Examples 3 and 4 and Herbicide Comparative Examples 3 and 4)
as §3, with “barnyardgrass,” for “barnyard brass,”, “amaranth” for “amarnth”, “covered” for “covert”, “plants” for “plant”, “on” for “on the”, “the” for “the spraying”
as §4

cocklebur [13] = test: Upland soil treatment test (3); settings: 20th day after treatment
Experimental: as §1, §8
as §3, with “barnyardgrass,” for “barnyard brass,”, “amaranth” for “amarnth”, “covered” for “covert”, “plants” for “plant”, “on” for “on the”, “the” for “the spraying”
as §4

green foxtail [14] = test: Upland soil treatment test (3); settings: 20th day after treatment
Experimental: as §1, §8
as §3, with “barnyardgrass,” for “barnyard brass,”, “amaranth” for “amarnth”, “covered” for “covert”, “plants” for “plant”, “on” for “on the”, “the” for “the spraying”
as §4

velvetleaf [15] = test: Upland soil treatment test (3); settings: 20th day after treatment
Experimental: as §1, §8
as §3, with “barnyardgrass,” for “barnyard brass,”, “amaranth” for “amarnth”, “covered” for “covert”, “plants” for “plant”, “on” for “on the”, “the” for “the spraying”
as §4

large crabgrass [16] = test: Upland soil treatment test (3); settings: 20th day after treatment
Experimental: as §1, §8
as §3, with “barnyardgrass,” for “barnyard brass,”, “amaranth” for “amarnth”, “covered” for “covert”, “plants” for “plant”, “on” for “on the”, “the” for “the spraying”
as §4

slender amaranth [17] = test: Upland soil treatment test (3); settings: 20th day after treatment
Experimental: as §1, §8
as §3, with “barnyardgrass,” for “barnyard brass,”, “amaranth” for “amarnth”, “covered” for “covert”, “plants” for “plant”, “on” for “on the”, “the” for “the spraying”
as §4

barnyard grass [18] = test: Foliar treatment test (2); settings: 20th day after treatment
Experimental: as §1
(§9) (2) Biological Test (Foliar Treatment Test, Herbicide Examples 1 and 2 and Herbicide Comparative Examples 1 and 2)
(§10) Seeds of weeds such as large crabgrass, barnyard grass, green foxtail, cocklebur, velvetleaf and slender amaranth and seeds of corn, wheat and barley were sown in 1/5,000-are Wagner pots filled with upland soil, and covered with upland soil. The seeds were grown in a greenhouse, and at the stage of 1˜2 leaves of these plants, a predetermined amount of the herbicide prepared in the above (1) was suspended in water and uniformly sprayed onto leaf and stalk portions at a rate of 200 liter/10 are. Thereafter, the plants were grown in the greenhouse, and on 20th day after the treatment, the herbicide was evaluated for herbicidal efficacy.
as §6, §7

cocklebur [19] = test: Foliar treatment test (2); settings: 20th day after treatment
Experimental: as §1, §9, §10, §6, §7

green foxtail [20] = test: Foliar treatment test (2); settings: 20th day after treatment
Experimental: as §1, §9, §10, §6, §7

velvetleaf [21] = test: Foliar treatment test (2); settings: 20th day after treatment
Experimental: as §1, §9, §10, §6, §7

large crabgrass [22] = test: Foliar treatment test (2); settings: 20th day after treatment
Experimental: as §1, §9, §10, §6, §7

slender amaranth [23] = test: Foliar treatment test (2); settings: 20th day after treatment
Experimental: as §1, §9, §10, §6, §7
Note: ranges in brackets are in %.

CCn1ncc(C(=O)c2cc(C)c3c(c2C)C=CCS3)c1O [Compound 47-1, 5,8-dimethyl-6-(1-ethyl-5-hydroxypyrazol-4-yl)carbonyl-3,4-dehydrothiochroman]
Herbicidal Efficacy barnyard grass (barnyard grass [1]; 300 g a.i./hectare): 0 (81-100)
Herbicidal Efficacy cocklebur (cocklebur [2]; 300 g a.i./hectare): 0 (81-100)
Herbicidal Efficacy green foxtail (green foxtail [3]; 300 g a.i./hectare): 0 (81-100)
Herbicidal Efficacy velvetleaf (velvetleaf [4]; 300 g a.i./hectare): 0 (81-100)
Herbicidal Efficacy large crabgrass (large crabgrass [5]; 300 g a.i./hectare): 0 (81-100)
Herbicidal Efficacy slender amaranth (slender amaranth [6]; 300 g a.i./hectare): 5 (0)
Herbicidal Efficacy cocklebur (cocklebur [7]; 300 g a.i./hectare): 5 (0)
Herbicidal Efficacy barnyard grass (barnyardgrass; 300 g a.i./hectare): 0 (81-100)
Herbicidal Efficacy green foxtail (green foxtail [8]; 300 g a.i./hectare): 0 (81-100)
Herbicidal Efficacy velvetleaf (velvetleaf [9]; 300 g a.i./hectare): 4 (1-20)
Herbicidal Efficacy large crabgrass (large crabgrass [10]; 300 g a.i./hectare): 0 (81-100)
Herbicidal Efficacy slender amaranth (slender amaranth [11]; 300 g a.i./hectare): 0 (81-100)

Pyrazolate [x, reference compound]
Herbicidal Efficacy barnyard grass (barnyard grass [12]; dosage 10 g a.i./are): 0 (81-100)
Herbicidal Efficacy cocklebur (cocklebur [13]; dosage 10 g a.i./are): 0 (81-100)
Herbicidal Efficacy green foxtail (green foxtail [14]; dosage 10 g a.i./are): 0 (81-100)
Herbicidal Efficacy velvetleaf (velvetleaf [15]; dosage 10 g a.i./are): 0 (81-100)
Herbicidal Efficacy large crabgrass (large crabgrass [16]; dosage 10 g a.i./are): 0 (81-100)
Herbicidal Efficacy slender amaranth (slender amaranth [17]; dosage 10 g a.i./are): 0 (81-100)
Herbicidal Efficacy barnyard grass (barnyard grass [1]; 1000 g a.i./hectare): 0 (81-100)
Herbicidal Efficacy cocklebur (cocklebur [2]; 1000 g a.i./hectare): 0 (81-100)
Herbicidal Efficacy green foxtail (green foxtail [3]; 1000 g a.i./hectare): 0 (81-100)
Herbicidal Efficacy velvetleaf (velvetleaf [4]; 1000 g a.i./hectare): 0 (81-100)
Herbicidal Efficacy large crabgrass (large crabgrass [5]; 1000 g a.i./hectare): 0 (81-100)
Herbicidal Efficacy slender amaranth (slender amaranth [6]; 1000 g a.i./hectare): 1 (61-80)
Herbicidal Efficacy cocklebur (cocklebur [7]; 1000 g a.i./hectare): 0 (81-100)
Herbicidal Efficacy barnyard grass (barnyardgrass; 1000 g a.i./hectare): 0 (81-100)
Herbicidal Efficacy green foxtail (green foxtail [8]; 1000 g a.i./hectare): 0 (81-100)
Herbicidal Efficacy velvetleaf (velvetleaf [9]; 1000 g a.i./hectare): 0 (81-100)
Herbicidal Efficacy large crabgrass (large crabgrass [10]; 1000 g a.i./hectare): 0 (81-100)
Herbicidal Efficacy slender amaranth (slender amaranth [11]; 1000 g a.i./hectare): 0 (81-100)
Herbicidal Efficacy barnyard grass (barnyard grass [18]; dosage 10 g a.i./are): 0 (81-100)
Herbicidal Efficacy cocklebur (cocklebur [19]; dosage 10 g a.i./are): 0 (81-100)
Herbicidal Efficacy green foxtail (green foxtail [20]; dosage 10 g a.i./are): 0 (81-100)
Herbicidal Efficacy velvetleaf (velvetleaf [21]; dosage 10 g a.i./are): 0 (81-100)
Herbicidal Efficacy large crabgrass (large crabgrass [22]; dosage 10 g a.i./are): 0 (81-100)
Herbicidal Efficacy slender amaranth (slender amaranth [23]; dosage 10 g a.i./are): 1 (61-80)

CCn1ncc(C(=O)c2ccc(S(C)(=O)=O)cc2C)c1O [y, reference compound]
Herbicidal Efficacy barnyard grass (barnyard grass [12]; dosage 3 g a.i./are): 2 (41-60)
Herbicidal Efficacy cocklebur (cocklebur [13]; dosage 3 g a.i./are): 0 (81-100)
Herbicidal Efficacy green foxtail (green foxtail [14]; dosage 3 g a.i./are): 2 (41-60)
Herbicidal Efficacy velvetleaf (velvetleaf [15]; dosage 3 g a.i./are): 0 (81-100)
Herbicidal Efficacy large crabgrass (large crabgrass [16]; dosage 3 g a.i./are): 3 (21-40)
Herbicidal Efficacy slender amaranth (slender amaranth [17]; dosage 3 g a.i./are): 0 (81-100)
Herbicidal Efficacy barnyard grass (barnyard grass [1]; 300 g a.i./hectare): 3 (21-40)
Herbicidal Efficacy cocklebur (cocklebur [2]; 300 g a.i./hectare): 0 (81-100)
Herbicidal Efficacy green foxtail (green foxtail [3]; 300 g a.i./hectare): 2 (41-60)
Herbicidal Efficacy velvetleaf (velvetleaf [4]; 300 g a.i./hectare): 0 (81-100)
Herbicidal Efficacy large crabgrass (large crabgrass [5]; 300 g a.i./hectare): 3 (21-40)
Herbicidal Efficacy slender amaranth (slender amaranth [6]; 300 g a.i./hectare): 0 (81-100)
Herbicidal Efficacy cocklebur (cocklebur [7]; 300 g a.i./hectare): 3 (21-40)
Herbicidal Efficacy barnyard grass (barnyardgrass; 300 g a.i./hectare): 0 (81-100)
Herbicidal Efficacy green foxtail (green foxtail [8]; 300 g a.i./hectare): 0 (81-100)
Herbicidal Efficacy velvetleaf (velvetleaf [9]; 300 g a.i./hectare): 3 (21-40)
Herbicidal Efficacy large crabgrass (large crabgrass [10]; 300 g a.i./hectare): 0 (81-100)
Herbicidal Efficacy slender amaranth (slender amaranth [11]; 300 g a.i./hectare): 2 (41-60)
Herbicidal Efficacy barnyard grass (barnyard grass [18]; dosage 3 g a.i./are): 0 (81-100)
Herbicidal Efficacy cocklebur (cocklebur [19]; dosage 3 g a.i./are): 3 (21-40)
Herbicidal Efficacy green foxtail (green foxtail [20]; dosage 3 g a.i./are): 0 (81-100)
Herbicidal Efficacy velvetleaf (velvetleaf [21]; dosage 3 g a.i./are): 3 (21-40)
Herbicidal Efficacy large crabgrass (large crabgrass [22]; dosage 3 g a.i./are): 0 (81-100)
Herbicidal Efficacy slender amaranth (slender amaranth [23]; dosage 3 g a.i./are): 2 (41-60)
